Results reported in the supplement of paper PMC13380429.

How the values were obtained:
Calu-3 [1] = assay: relative viability EC50 (midpoint between 100% and the lowest measured viability); higher = less toxic; conditions: 72 h
Caco-2 [2] = assay: as above; conditions: 72 h
Vero E6 [3] = assay: as above; conditions: 72 h
HepG2 [4] = assay: as above; conditions: 72 h
U2OS [5] = assay: as above; conditions: 72 h
[6] = system: A549-ACE2 infected with SARS-CoV-2; assay: SARS-CoV-2 infection rate relative to DMSO; higher = more infection; conditions: 24 h
Calu-3 [7] = assay: cell viability relative to DMSO; higher = less toxic; conditions: 72 h
Caco-2 [8] = assay: as above; conditions: 72 h
Vero E6 [9] = assay: as above; conditions: 72 h
HepG2 [10] = assay: as above; conditions: 72 h
U2OS [11] = assay: as above; conditions: 72 h
A549-ACE2 = assay: drug-induced phospholipidosis relative to tamoxifen; higher = more phospholipidosis
[12] = system: A549-ACE2 infected with SARS-CoV-2; assay: morphology score (similarity to uninfected cells); higher = more like uninfected cells; conditions: 24 h
Calu-3 [13] = assay: drug sensitivity score (DSS) for viability; higher = more toxic; extreme values may be limits of the assay; conditions: 72 h
Caco-2 [14] = assay: as above; conditions: 72 h
Vero E6 [15] = assay: as above; conditions: 72 h
HepG2 [16] = assay: as above; conditions: 72 h
U2OS [17] = assay: as above; conditions: 72 h
[18] = system: A549-ACE2 infected with SARS-CoV-2; assay: cell count relative to DMSO; higher = less toxic; conditions: 24 h

Cc1ccc(-n2nc(C(C)(C)C)cc2NC(=O)Nc2ccc(OCCN3CCOCC3)c3ccccc23)cc1 [doramapimod]
Conditions	drug sensitivity score	relative viability EC50 [µM]
Caco-2 [2]	–	> 10
Caco-2 [14]	0.3	–
Calu-3 [1]	–	> 10
Calu-3 [13]	0	–
HepG2 [4]	–	> 10
HepG2 [16]	0	–
U2OS [5]	–	> 10
U2OS [17]	0	–
Vero E6 [3]	–	> 10
Vero E6 [15]	0	–

Conditions	SARS-CoV-2 infection rate, [6] [%]	cell count, [18] [%]	cell viability, Caco-2 [8] [%]	cell viability, Calu-3 [7] [%]	cell viability, HepG2 [10] [%]	cell viability, U2OS [11] [%]	cell viability, Vero E6 [9] [%]	morphology score, [12]
1 nM	–	–	93.8	114	107	98.6	108	–
10 nM	–	–	108	97.3	105	104	95.2	–
100 nM	–	–	89.3	92.4	99.7	91.6	95.5	–
0.3 µM	105	91	–	–	–	–	–	-0.27
1000 nM	–	–	90.9	97.2	104	93.7	95.7	–
3 µM	68	105	–	–	–	–	–	0.36
10 µM	72	115	–	–	–	–	–	0.7
10000 nM	–	–	93.6	88.4	111	95.6	104	–
30 µM	16	70	–	–	–	–	–	0.44

drug-induced phospholipidosis [%], A549-ACE2
Conditions	0.3 µM	0.833333 µM	3.33333 µM	6.66667 µM	10 µM	30 µM
24 h	-1.22	-3.86	-2.5	7.51	20.8	66.3
48 h	-2.88	-4.62	-1.1	6.99	15.5	–
72 h	-1.89	-3.86	1.71	12.1	19.8	–

NC(=O)c1noc([C@H](CCCC2CCCCC2)CC(=O)NO)n1
Conditions	drug sensitivity score	relative viability EC50 [µM]
Caco-2 [2]	–	> 10
Caco-2 [14]	1.2	–
Calu-3 [1]	–	> 10
Calu-3 [13]	0	–
HepG2 [16]	2.2	–
U2OS [5]	–	> 10
U2OS [17]	0.3	–
Vero E6 [3]	–	> 10
Vero E6 [15]	0	–

Conditions	SARS-CoV-2 infection rate, [6] [%]	cell count, [18] [%]	cell viability, Caco-2 [8] [%]	cell viability, Calu-3 [7] [%]	cell viability, HepG2 [10] [%]	cell viability, U2OS [11] [%]	cell viability, Vero E6 [9] [%]	morphology score, [12]
1 nM	–	–	97.2	106	102	96.4	95.2	–
10 nM	–	–	93	102	108	101	90.9	–
100 nM	–	–	96.9	93.8	109	101	93.1	–
0.3 µM	102	102	–	–	–	–	–	-0.06
1000 nM	–	–	88	110	89.6	97.4	91.4	–
3 µM	98	100	–	–	–	–	–	0
10 µM	89	102	–	–	–	–	–	0.38
10000 nM	–	–	79.6	98.7	74.8	86.7	97	–
30 µM	95	101	–	–	–	–	–	0.25

drug-induced phospholipidosis [%], A549-ACE2
Conditions	0.3 µM	0.833333 µM	3.33333 µM	6.66667 µM	10 µM	30 µM
24 h	4.23	6.27	14.7	16.7	18.4	23.6
48 h	4.52	5.1	16.8	23.1	24.9	32.6
72 h	5.18	1.64	8.76	19.5	21	–

OC1=c2ccccc2=C(NC2CCCCC2)/C1=C\c1ccccc1
Conditions	drug sensitivity score	relative viability EC50 [µM]
Caco-2 [2]	–	1.86
Caco-2 [14]	5.6	–
Calu-3 [1]	–	3.1
Calu-3 [13]	3.6	–
HepG2 [4]	–	2.59
HepG2 [16]	6.5	–
U2OS [5]	–	1.88
U2OS [17]	8.3	–
Vero E6 [3]	–	2.4
Vero E6 [15]	6.3	–

Conditions	SARS-CoV-2 infection rate, [6] [%]	cell count, [18] [%]	cell viability, Caco-2 [8] [%]	cell viability, Calu-3 [7] [%]	cell viability, HepG2 [10] [%]	cell viability, U2OS [11] [%]	cell viability, Vero E6 [9] [%]	morphology score, [12]
1 nM	–	–	107	89.1	95.6	98.9	93.6	–
10 nM	–	–	92	82.2	104	99.4	95.2	–
0.1 µM	96	99	–	–	–	–	–	-0.03
100 nM	–	–	96	90.1	101	108	96.9	–
0.3 µM	99	101	–	–	–	–	–	0.22
1 µM	103	99	–	–	–	–	–	-0.06
1000 nM	–	–	88.3	99.5	93	83	91.7	–
3 µM	93	73	–	–	–	–	–	0.11
10000 nM	–	–	32.8	35.8	1.2	0.1	10.5	–

drug-induced phospholipidosis [%], A549-ACE2
Conditions	0.3 µM	0.833333 µM	3.33333 µM	30 µM
24 h	2.77	-0.77	1.63	12.9
48 h	0.98	-0.44	6.41	–
72 h	1.89	-2.33	6.19	–

COc1ccc2nc3c(c(N)c2c1)CCCC3 [7-methoxytacrine]
Conditions	drug sensitivity score	relative viability EC50 [µM]
Caco-2 [2]	–	> 10
Caco-2 [14]	0	–
Calu-3 [1]	–	> 10
Calu-3 [13]	0	–
HepG2 [4]	–	> 10
HepG2 [16]	2.6	–
U2OS [5]	–	> 10
U2OS [17]	0	–
Vero E6 [3]	–	> 10
Vero E6 [15]	0	–

Conditions	SARS-CoV-2 infection rate, [6] [%]	cell count, [18] [%]	cell viability, Caco-2 [8] [%]	cell viability, Calu-3 [7] [%]	cell viability, HepG2 [10] [%]	cell viability, U2OS [11] [%]	cell viability, Vero E6 [9] [%]	morphology score, [12]
1 nM	–	–	96	93	100	103	102	–
10 nM	–	–	98.2	102	91.4	102	99.8	–
100 nM	–	–	96.2	91.1	92.5	98.5	95.6	–
0.3 µM	102	103	–	–	–	–	–	-0.02
1000 nM	–	–	93.8	97.7	79.3	100	95.4	–
3 µM	81	109	–	–	–	–	–	0.53
10 µM	34	115	–	–	–	–	–	0.82
10000 nM	–	–	92.2	95.5	83.5	95.3	98.9	–
30 µM	17	111	–	–	–	–	–	0.76

drug-induced phospholipidosis [%], A549-ACE2
Conditions	0.3 µM	0.833333 µM	3.33333 µM	6.66667 µM	10 µM	30 µM
24 h	0.14	-0.76	0.16	7.44	14.2	83.8
48 h	2.14	-1.42	1.92	4.91	9.37	110
72 h	5.21	-1.72	1.16	5.48	11.9	129

COc1cc2ncnc(Nc3cccc(Cl)c3)c2cc1OC [tyrphostin-AG-1478]
Conditions	drug sensitivity score	relative viability EC50 [µM]
Caco-2 [14]	3.1	–
Calu-3 [1]	–	0.422
Calu-3 [13]	11.1	–
HepG2 [16]	1.5	–
U2OS [5]	–	> 10
U2OS [17]	0.1	–
Vero E6 [3]	–	0.335
Vero E6 [15]	8.2	–

Conditions	SARS-CoV-2 infection rate, [6] [%]	cell count, [18] [%]	cell viability, Caco-2 [8] [%]	cell viability, Calu-3 [7] [%]	cell viability, HepG2 [10] [%]	cell viability, U2OS [11] [%]	cell viability, Vero E6 [9] [%]	morphology score, [12]
1 nM	–	–	102	107	99.7	103	98.6	–
10 nM	–	–	88.6	103	85.3	96.1	100	–
100 nM	–	–	97.4	93.6	101	96.2	84.9	–
0.3 µM	101	97	–	–	–	–	–	-0.07
1000 nM	–	–	80.5	45.1	100	92.7	64.3	–
3 µM	91	102	–	–	–	–	–	0.32
10 µM	57	106	–	–	–	–	–	0.52
10000 nM	–	–	72.4	31.3	67.3	87.7	48.2	–
30 µM	19	69	–	–	–	–	–	0.35

drug-induced phospholipidosis [%], A549-ACE2
Conditions	0.3 µM	0.833333 µM	3.33333 µM	6.66667 µM	10 µM	30 µM
24 h	3.78	0.06	-0.97	3.23	3.9	3.18
48 h	3.39	-0.45	-0.89	-0.86	1.84	-2.59
72 h	0.893	-2.52	-3.56	-0.746	0.696	-0.954
